US6495514B1, “Method for reducing inflammation and inducing an analgesic effect and compounds thereof” (Mercer University, priority 1998, dated 2002)
Marks after values point to notes of the source that are not given here.

What was measured:
[1] = biological target: T1, peptidylglycine α-monooxygenase (PAM) (Rattus norvegicus, UniProt P14925); test: Serum PAM activity after PBA dosing in rats; format: in vivo; settings: for inhibition at 500 mg/kg: rat, sc
T1 construct: 50 μl of serum sample (enzyme source) was added to 200 μl of the assay mixture; from tissue; host or cells: rat serum (tail vein blood)
T1 sequence (P14925 36-976): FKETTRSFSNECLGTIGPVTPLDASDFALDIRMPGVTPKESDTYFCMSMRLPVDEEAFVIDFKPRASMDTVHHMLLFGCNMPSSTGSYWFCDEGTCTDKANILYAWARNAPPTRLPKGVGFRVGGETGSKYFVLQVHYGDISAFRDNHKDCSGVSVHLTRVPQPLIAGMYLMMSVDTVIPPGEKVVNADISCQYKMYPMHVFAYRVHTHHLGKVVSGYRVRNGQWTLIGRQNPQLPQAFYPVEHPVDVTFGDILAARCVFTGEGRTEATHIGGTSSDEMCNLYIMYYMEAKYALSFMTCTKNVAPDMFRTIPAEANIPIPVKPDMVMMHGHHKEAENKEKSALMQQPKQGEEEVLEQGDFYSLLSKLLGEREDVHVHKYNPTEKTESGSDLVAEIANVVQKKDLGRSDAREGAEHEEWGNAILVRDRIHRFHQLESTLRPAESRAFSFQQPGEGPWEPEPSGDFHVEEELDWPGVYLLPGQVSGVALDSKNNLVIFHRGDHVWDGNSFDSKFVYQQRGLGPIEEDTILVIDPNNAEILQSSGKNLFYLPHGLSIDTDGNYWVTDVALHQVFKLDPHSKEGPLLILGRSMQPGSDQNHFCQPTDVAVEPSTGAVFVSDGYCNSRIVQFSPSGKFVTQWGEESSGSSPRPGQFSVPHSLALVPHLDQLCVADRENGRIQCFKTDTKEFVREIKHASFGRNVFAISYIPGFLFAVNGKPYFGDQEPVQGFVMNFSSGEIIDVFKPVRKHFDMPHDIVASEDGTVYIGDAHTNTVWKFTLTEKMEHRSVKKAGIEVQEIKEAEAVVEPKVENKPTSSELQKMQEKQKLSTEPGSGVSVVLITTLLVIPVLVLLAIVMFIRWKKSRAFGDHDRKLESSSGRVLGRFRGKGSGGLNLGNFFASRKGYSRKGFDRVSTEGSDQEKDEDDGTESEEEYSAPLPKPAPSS
Experimental: (§1) Male rats were fasted overnight and anesthetized with ether to obtain blood samples for measuring PAM and PGL activity in serum. Blood (0.5 ml) was collected from the tail vein at different times and spun at 14,000×g for 5 minutes. Serum was collected and stored at −70° C. until assayed. PAM activity was determined based on the procedure disclosed in Katopodis et al. (Biochemistry 30, 6189-6194, 1991). Briefly, 50 μl of serum sample (enzyme source) was added to 200 μl of the assay mixture which contained tripeptide TNP-D-Tyr-Val-Gly as the enzyme substrate (40 μM), copper sulfate (15 μM), L-ascorbate (4 mM) and catalase (1 mg/ml) in MES buffer (100 mM, pH 6.5). After a 30 minute incubation period at 37° C., an aliquot (90 μl) was quenched with 10 μl of HClO4 (3M) and centrifuged at 14,000×g for 5 minutes. A 20 μl aliquot was removed and used to assay for product using reverse phase HPLC at 344 nm on a C8 column with a mobile phase of 56% water/0.1% trifluoroacetic acid/44% acetonitrile at a flow rate of 1.5 mL/min. In this manner, both TNP-D-Tyr-Val-NH2 as well as the TNP-D-Tyr-Val-α-hydroxyGly were quantitated simultaneously. PGL activity was assayed by measuring the conversion of α-hydroxyhippuric acid to benzamide as disclosed in Katopodis and May (Biochemistry 29, 4541-4548, 1990). Briefly, 50 μl of the serum sample was added to 200 μl of a 100 mM MES buffer solution (pH 6.5) containing 2 mM of the enzyme substrate. After incubation for 30 minutes at 37° C., an aliquot of the assay mixture was quenched with 3 M HClO4, centrifuged at 14,000×g and 20 μl used to analyze for benzamide product by HPLC using a C8 reverse phase column. Product detection was performed at 225 nm using a mobile phase of 80% water/0.1% trifluoroacetic acid/20% acetonitrile at a flow rate of 1.5 mL/min. Enzyme activity was expressed as milliunits per milliliter which is the amount of enzyme required to produce one nanomole of product.

[2] = biological target: T2, peptidylamidoglycolate lyase (PGL) (Rattus norvegicus, UniProt P14925); test: Serum PGL activity after PBA dosing in rats; format: in vivo; settings: 500 mg/kg s.c., 24 hour observation period
T2 construct: from tissue; host or cells: rat serum (tail vein blood)
T2 sequence (P14925 36-976): T1 sequence (P14925 36-976)
Experimental: as §1, with “PGL activity was assayed by measuring the conversion of α-hydroxyhippuric acid to benzamide as disclosed in Katopodis and May (Biochemistry 29, 4541-4548, 1990). Briefly, 50 μl of the serum sample was added to 200 μl of a 100 mM MES buffer solution (pH 6.5) containing 2 mM of the enzyme substrate. After incubation for 30 minutes at 37° C., an aliquot of the assay mixture was quenched with 3 M HClO4, centrifuged at 14,000×g and 20 μl used to analyze for benzamide product by HPLC using a C8 reverse phase column. Product detection was performed at 225 nm using a mobile phase of 80% water/0.1% trifluoroacetic acid/20% acetonitrile at a flow rate of 1.5 mL/min.” left out

carrageenan edema = test: Carrageenan-induced hind paw edema; format: in vivo, rat; settings: for inhibition of hind paw edema: 2 hours post-administration
Experimental: Carrageenan, bradykinin and serotonin edemas were induced in anesthetized, male Sprague-Dawley rats (150-175 g) by injecting 0.5 mg (0.05 ml) of carrageenan, 50 μg (0.1 ml) of bradykinin and 20 μg (0.1 ml) of serotonin, respectively, into the subplantar region of the left hind paws the contralateral hind paws received saline only. Hind paw volumes (edema) were measured plethysmographically by displacement of mercury at 0, 1, 2, 3, 4 and 6 hours post administration of carrageenan, 30 minutes after bradykinin and 1 hour after serotonin. Swelling was determined by subtracting the volume (ml) of the right hind . paw from that of the left. […] In those experiments in which PBA was delivered continuously to rats over a 7 day period prior to the administration of carrageenan, ALZET osmotic pumps (Palo Alto, Calif.) were filled with drug and implanted subcutaneously between the scapulae into anesthetized rats.

bradykinin edema = test: Bradykinin-induced hind paw edema; format: in vivo, rat
Experimental: (§2) Carrageenan, bradykinin and serotonin edemas were induced in anesthetized, male Sprague-Dawley rats (150-175 g) by injecting 0.5 mg (0.05 ml) of carrageenan, 50 μg (0.1 ml) of bradykinin and 20 μg (0.1 ml) of serotonin, respectively, into the subplantar region of the left hind paws the contralateral hind paws received saline only. Hind paw volumes (edema) were measured plethysmographically by displacement of mercury at 0, 1, 2, 3, 4 and 6 hours post administration of carrageenan, 30 minutes after bradykinin and 1 hour after serotonin. Swelling was determined by subtracting the volume (ml) of the right hind . paw from that of the left. PBA was administered subcutaneously 30 minutes before the administration of carrageenan and serotonin and one hour before bradykinin. In those experiments in which PBA was delivered continuously to rats over a 7 day period prior to the administration of carrageenan, ALZET osmotic pumps (Palo Alto, Calif.) were filled with drug and implanted subcutaneously between the scapulae into anesthetized rats.

serotonin edema = test: Serotonin-induced hind paw edema; format: in vivo, rat
Experimental: as §2

substance P (SP) = test: SP levels in hind paw tissue (RIA); format: in vivo, rat; settings: 75 mg/kg/hr for 7 days, prior to carrageenan (time 0)
Experimental: The effects of PBA on levels of SP were evaluated using a modification of a method previously disclosed in Ahmed et al. (Peptides 15, 317-322, 1994). Briefly, at different times following the administration of carrageenan, hind paw ankle joints were removed, immediately frozen on dry ice and stored at −80° C. until assayed for SP. After the frozen sample was weighed, it was boiled for 7 minutes as a 10% w/v solution of 2M acetic acid in 4% EDTA, pH 3.5, cut into small pieces and boiled for an additional 7 minutes. Samples were then homogenized for 60 seconds in a Brinkmann Polytron (Westbury, N.Y.), sonicated for 30 seconds and centrifuged at 3000×g for 20 minutes. Supernatants were lyophilized and then diluted in radioimmunoassay (RIA) buffer prior to analysis. SP levels were determined from these samples by using a commercially available RIA kit (INCSTAR, Stillwater, Minn.). Initial experiments conducted to insure the specificity of the substance P antibody for SP found the cross-reactivity for the glycine-extended precursor to be 1.7% at concentrations up to 100 nanograms/ml.

tail withdrawal latency = test: Tail-flick response to heat (50° C. water); format: in vivo, rat; settings: s.c., doses up to 750 mg/kg; 15, 30 and 60 minutes post-drug
Experimental: (§3) The effects of PBA on the perception of pain was evaluated using several different animal models. The spinally-mediated tail-flick response to heat in fasted rats (250-290 g) was used by measuring the withdrawal latency following immersion of the rodent's tail (2″) into hot water (50° C.). PBA at several different dose levels was administered subcutaneously and the time to tail withdrawal was measured at 0, 15, 30 and 60 minutes post-drug administration. The analgesic effects of PBA were also evaluated in fasted mice following the injection of either phenyl-p-quinone or acetylcholine. Male, ND4 Swiss mice (15-20 g) were dosed subcutaneously with PBA or saline followed immediately by the injection of phenyl-p-quinone (2 mg/kg i.p.). After 5 minutes, the number of writhes (abdominal constrictions along with contortion of the trunk and extension of the hindlimbs) was counted over the next 10 minutes. When acetylcholine (6 mg/kg i.p.) was used as the noxious agent, PBA was administered subcutaneously 15 minutes before the administration of the algesic agent. The number of writhes produced was counted over the last 5 minutes following the algesic agent.

[3] = tested on: phenyl-p-quinone-induced writhing; test: Phenyl-p-quinone-induced writhing; format: in vivo, mice
Experimental: as §3

[4] = tested on: acetylcholine-induced writhing; test: Acetylcholine-induced writhing; format: in vivo, mice
Experimental: as §3

[5] = dose that produced significant inhibition of carrageenan edema

O=C(O)C/C=C/c1ccccc1 [PBA, trans-4-phenyl-3-butenoic acid]
serum PAM activity compared to controls ([1]; 75 mg/kg/hr for 7 days, prior to carrageenan (time 0)): significantly reduced
serum PAM activity vs control ([1]; 500 mg/kg s.c. single dose, after 24 hours): not significantly different from control values
dose dependence of inhibition of serum PAM activity ([1]; 50, 150 and 500 mg/kg, normal rats): dose-related
sustained reduction in serum PAM activity ([1]; continuous release 50 to 100 mg/kg/hr s.c. via osmotic pumps, throughout 7 day dosing period): > 75%
inhibition at 500 mg/kg ([1]; 500 mg/kg s.c. single dose, by 6 hours): 43%
inhibition at 500 mg/kg ([1]; 500 mg/kg s.c. single dose, conscious rats, within 1 hour, remained during first 3 hours): > 90%
effect on serum PGL activity [2]: no effect
inhibition of carrageenan edema (carrageenan edema; 75 mg/kg/hr for 1 week before carrageenan, each time period): significant inhibition
activity on carrageenan edema (carrageenan edema; 100 mg/kg dose): did not show any activity
inhibition of hind paw swelling (carrageenan edema; 100 mg/kg, administered 2 hours after induction of inflammation): only effective at hour 3
inhibition of hind paw edema (carrageenan edema; 250 mg/kg s.c. 30 minutes before carrageenan): 43%
inhibition of hind paw swelling (carrageenan edema; 250 mg/kg, administered 2 hours after induction, up to 6 hours post-phlogistic agent): significant inhibition of hind paw swelling
inhibition of hind paw edema (carrageenan edema; 500 mg/kg s.c. 30 minutes before carrageenan): 67%
inhibition of hind paw swelling (carrageenan edema; 500 mg/kg, administered 2 hours after induction, up to 6 hours post-phlogistic agent): significant inhibition of hind paw swelling
Inhibition (%) (carrageenan edema; Carrageenan, PBA s.c. 30 minutes before, measured 2 hours after, P < .05): 66.7^b %
Hind Paw Volume (mL ± S.E.M.) (carrageenan edema; Carrageenan, PBA s.c. 30 minutes before, measured 2 hours after, n = 8): 0.31 ± 0.07 mL
dose dependence of inhibition of hind paw edema (carrageenan edema; s.c. 30 minutes before carrageenan, at 2 and 3 hours post-administration): dose-related inhibition
Inhibition (%) (bradykinin edema; Bradykinin 50 μg, PBA s.c. 1 hour before, measured 30 minutes after): 25.6%
Hind Paw Volume (mL ± S.E.M.) (bradykinin edema; Bradykinin 50 μg, PBA s.c. 1 hour before, measured 30 minutes after, n = 8): 0.29 ± 0.04 mL
inhibitory activity on edema produced by bradykinin (bradykinin edema; [5]): lacked significant inhibitory activity
Inhibition (%) (serotonin edema; Serotonin 20 μg, PBA s.c. 30 minutes before, measured 1 hour after): 18.5%
Hind Paw Volume (mL ± S.E.M.) (serotonin edema; Serotonin 20 μg, PBA s.c. 30 minutes before, measured 1 hour after, n = 8): 0.66 ± 0.03 mL
inhibitory activity on edema produced by serotonin (serotonin edema; [5]): lacked significant inhibitory activity
SP levels in hind paw tissue compared to controls (substance P (SP)): significantly reduced
effect on time to tail withdrawal (tail withdrawal latency): did not have any effect
analgesic effect in writhing assay ([3]; 100 mg/kg dose): significant analgesic effect
inhibition of writhing ([3]; 250 mg/kg s.c.): greater than 85%
analgesic effect in writhing assay ([4]; 100 mg/kg dose): significant analgesic effect
ED50 ([4]; Mus musculus, sc, s.c. 15 minutes before acetylcholine, percentage of animals per group that writhed (all or none)): 105 mg/kg
